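Step 1: Grow cells in 96-well plates. Step 2: Expose to compound for 48 hours at 5 concentrations. Step 3: Interpolate endpoints linearly; if unreached, use highest concentration. TGI: total growth inhibition.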
Key:
Assay in all cases: growth of human tumour cells (NCI), 48 h
[1] = test system: T-47D breast
[2] = test system: TK-10 renal
[3] = test system: OVCAR-5 ovarian
[4] = test system: SW-620 colon
[5] = test system: EKVX NSCLC
[6] = test system: BT-549 breast
[7] = test system: SF-539 CNS
[8] = test system: NCI-H226 lung
[9] = test system: K-562 leukemia
[10] = test system: KM12 colon
[11] = test system: SK-OV-3 ovarian
[12] = test system: A498 renal
[13] = test system: 786-0 renal
[14] = test system: SK-MEL-2 melanoma
[15] = test system: UACC-257 melanoma
[16] = test system: UO-31 renal
[17] = test system: NCI-H460 lung
[18] = test system: NCI/ADR-RES ovarian
[19] = test system: OVCAR-3 ovarian
[20] = test system: M14 melanoma
[21] = test system: PC-3 prostate
[22] = test system: HS 578T breast
[23] = test system: SNB-19 CNS
[24] = test system: SR leukemia
[25] = test system: MOLT-4 leukemia
[26] = test system: SNB-75 CNS
[27] = test system: HCT-116 colon
[28] = test system: LOX IMVI melanoma
[29] = test system: NCI-H23 lung
[30] = test system: RPMI-8226 leukemia
[31] = test system: SF-295 CNS
[32] = test system: UACC-62 melanoma
[33] = test system: MCF7 breast
[34] = test system: RXF 393 renal
[35] = test system: HCT-15 colon
[36] = test system: SF-268 CNS
[37] = test system: MDA-MB-435
[38] = test system: SK-MEL-5 melanoma
[39] = test system: HT29 colon
[40] = test system: HL-60(TB) leukemia
[41] = test system: SK-MEL-28 melanoma
[42] = test system: HOP-62 NSCLC
[43] = test system: IGROV1 ovarian
[44] = test system: COLO 205 colon
[45] = test system: DU-145 prostate
[46] = test system: MALME-3M melanoma
[47] = test system: CCRF-CEM leukemia
[48] = test system: OVCAR-8 ovarian
[49] = test system: ACHN renal

Measured: TGI

Cc1c2c(n(C)c1C)C(=O)C1C(C2=O)C2(C)c3ccccc3C1(C)c1ccccc12 (centres undefined)
> 100 µM: all assays above
